Data published in US8877706B2, “Maytansinoid derivatives” (Bio-Thera Solutions, Ltd., Co., priority 2012, dated 2014).

Experiments:
[1] = test system: tubulin; assay: HTS-Tubulin Polymerization Assay Kit, tubulin polymerization in vitro; format: biochemical; details: 1 μM preparations, 10 μL added to 100 μL 4 mg/ml tubulin; 405 nm, 37° C.; compared with the PBS buffer
Method: According to the instruction of kit, pre-warm the 96-well plate to 37° C. for 30 min prior to starting the assay. At the same time, the spectrophotometer (SpectraMax, Molecular Devices, USA) was set as follow: wavelength, 405 nm; temperature, 37° C.; Kinetic, 31 cycles of 1 reading per minute. Make cold G-PEM buffer (990 μL General Tubulin Buffer+10 μL GTP Stock) and keep it on ice. […] Immediately place the plate into the spectrophotometer and start recording using the kinetic setup described above. […] Nocodazole, the tubulin polymerization inhibitor, was set as a negative control. The metabolite Cys-3AA-MDC was prepared by reaction of 3AA-MDC with cysteine under the base DIEA in CH2Cl2. LC-MS (M+H^+) calc.: 964.5. found: 964.2. Rt: 12.97 min. The metabolite Lys-MCC-MDC was prepared by reaction of SMCC-MDC with lysine under the base DIEA in DMF. LC-MS (M+H^+) calc.: 1103.7. found: 1103.2. Rt: 13.00 and 13.18 min.

[2] = test system: human acute lymphoblastic leukemia line C.E.M.; details: cited from earlier work
[3] = versus methotrexate, daunorubicin, and vincristine; cited from earlier work
[4] = test system: Raji cells; assay: Effect on the growth of Raji cells (CCK-8); details: 3 days
Method: Briefly, 10 thousands cells in 100 μL of DMEM:F12 (GBICO, CA) culture medium without serum were seeded into each well of a 96-well plate. Twice-fold serial dilutions of antibodies or conjugated form were prepared and each diluted antibodies were added in triplicate to the wells and the cultures were incubated at 37° C. for 3 days. The controls consisted of either medium alone or medium containing of Raji cell. After incubation, CCK-8 was added to each well and the absorbance at 450 nm of each well was determined in a Spectra Max spectrophotometer (Molecular Devices, Sunnyvale, Calif.).

[5] = test system: EGFR positive tumor cell line A431; assay: Growth inhibition, relative cell proliferation with CCK-8, A431; format: cell-based, human; details: A431, 72 hours
Method: Briefly, cells were detached by using 0.25% (vol/vol) trypsin and suspended in complete medium. Aliquots of cells were plated into 96-well microdilution plates. […] After 72 hours, plates were washed twice with PBS (pH 7.5), and analyzed for relative cell proliferation with CCK-8 reagent.

COc1cc2cc(c1Cl)N(C)C(=O)C[C@H](OC(=O)[C@H](C)N(C)C(=O)CCCCCN1C(=O)C=CC1=O)[C@]1(C)OC1[C@H](C)[C@@H]1C[C@@](O)(NC(=O)O1)[C@H](OC)/C=C/C=C(\C)C2 (stereo partly shown) [3AA-MDC, N2′-deacetyl-N2′-(6-maleimido-1-oxo-hexyl)maytansine]
inhibition of tubulin polymerization [1]: significantly inhibited the tubulin polymerization

CN[C@@H](C)C(=O)OC1CC(=O)N(C)c2cc(cc(OC)c2Cl)C/C(C)=C/C=C/C(OC)C2(O)CC(OC(=O)N2)C(C)C2OC12C (stereo partly shown) [Cys-3AA-MDC]
inhibition of tubulin polymerization [1]: significantly inhibited the tubulin polymerization

COc1cc2cc(c1Cl)N(C)C(=O)C[C@H](OC(=O)[C@H](C)N(C)C(=O)CCSC1CC(=O)N(CC3CCC(C(=O)NCCCC[C@H](N)C(=O)O)CC3)C1=O)[C@]1(C)O[C@H]1[C@H](C)[C@@H]1C[C@@](O)(NC(=O)O1)[C@H](OC)/C=C/C=C(\C)C2 (stereo partly shown) [Lys-mcc-MDC]
inhibition of tubulin polymerization [1]: significantly inhibited the tubulin polymerization

COc1cc2cc(c1Cl)N(C)C(=O)C[C@H](OC(=O)[C@H](C)N(C)C(C)=O)[C@]1(C)O[C@H]1[C@H](C)[C@@H]1C[C@@](O)(NC(=O)O1)[C@H](OC)/C=C/C=C(\C)C2 [Maytansine]
concentration inhibiting C.E.M. line (as low as) [2]: 10^−7 μg/mL
fold more cytotoxic than conventional chemotherapeutic agents [3]: 100- to 1000 fold

Bat1206: monoclonal antibody (rituximab) binding the extracellular domain of CD20
inhibition of CD20 positive cell growth [4]: inhibitory effects
inhibition of A431 cell proliferation [5]: had no effects on A431 cells
